Source: patent US20230247992A1, “ARTHROPOD CONTROL COMPOSITION” (Firmenich SA, priority 2020, published 2023)

Tests used:
Aedes aegypti [1] = experiment: in vitro Warm Body assay, substance applied on glass Petri dish on top of the warm body (deterrence and repellence); assay type: in vivo
Procedure: (§1) The controlling effect, repellence & spatial repellence, according to the present invention is determined by testing the Warm Body assay against the yellow fever mosquito, Aedes aegypti Rockefeller strain. […] Observations of controlling efficacy were made on host-seeking females of uniform age, 5 to 10 days old selected as mentioned in the publication mentioned hereinabove. Tested hungry females had access to 10% sugar solution but were not blood-fed. Further information is provided in the accompanying examples.
(§2) The published protocol has been adapted in not manually counting the landing mosquitoes but automatically using an automatic counting software, the switch from Anopheles gambiae to A. aegypti led to a decrease of mosquitoes’ number placed in the tested cage due to the size difference (i.e. 30 mosquitoes instead of 50) and to an increase of lighting as A. aegypti is a diurnal mosquitoes (i.e. 150 lux instead of 4 lux). Further information is provided in the accompanying examples.,
(§3) The controlling effect of the compositions according to the present invention was assessed using an adapted Warm Body assay as defined in Kröber T, Kessler S, Frei J, Bourquin M, Guerin PM. 2010. An in vitro assay for testing mosquito controlling compounds employing a warm body and carbon dioxide as a behavioral activator. J Am Mosq Control Assoc. 26:381-386. In this in-vitro assay the number of mosquito landing on a warm body, simulating an attractive host treated with the tested stimuli, was measured in order to assess the repellence effect.
(§4) The published protocol has been adapted in not manually counting the landing mosquitoes but automatically using an automatic counting software, the switch from Anopheles gambiae to Aedes aegypti led to a decrease of mosquitoes’ number placed in the tested cage due to the size difference (i.e. 30 mosquitoes instead of 50) and to an increase of lighting as A. aegypti is a diurnal mosquitoes (i.e. 150 lux instead of 4 lux).
(§5) In addition, since the inventors were interested by assessing spatial repellence added or not to a deterrent effect, the substance was applied using two different technics. Whether, as in Kröber et al. (2010), both deterrent and repellent effect were investigated (i.e. similar effect than most body care applications such as lotion) and the substances was applied on a sandblasted glass Petri dish placed on top of the warm body. Whether only the spatial repellence was investigated (i.e. similar effect than most home care applications such as liquid electric dispenser) and the substance was introduced in the cage space thanks to a forced evaporation system as described in Chappuis C J-F, Niclass Y, Vuilleumier C, Starkenmann C. 2015. Quantitative Headspace Analysis of Selected Odorants from Latrines in Africa and India. Environ. Sci. Technol. 49:6134-6140.
(§6) As stated in Kröber et al. (2010), selected 10-12 days old hungry females, that had ad libitum access to 10% sugar solution but were not blood-fed, were selected for the assay.
On the sandblasted glass Petri dish covering the warm body (28.3 cm^2), 100 µL of the substances diluted at different concentrations in ethanol was applied. The number of mosquito landing on the warm body was counted for each stimuli, N,N-diethyl-3-methylbenzamide (DEET) and ethyl 3-[acetyl(butyl)amino]propanoate (IR3535) being used as benchmarks and pure ethanol as control.

Aedes aegypti [2] = experiment: in vitro Warm Body assay, substance introduced in the cage air by forced evaporation (spatial repellence); assay type: in vivo
Procedure: as §1, §2, §3, §4, §5, §6
The forced evaporation system allows to fill the volume of the cage with stimuli tested, (2-methyl-4-oxo-3-prop-2-ynylcyclopent-2-en-1-yl) 2,2-dimethyl-3-(2-methylprop-1-enyl)cyclopropane-1-carboxylate (prallethrin) and N,N-diethyl-3-methylbenzamide (DEET) being used as benchmarks. In order to limit potential dead volumes in the cage, five flushes of the cage were made before starting the 2 minutes test during which the number of mosquito landings was counted.

[3] = 0.04% in ethanol, ethanol control 67.0±8.8 landings
[4] = 1% in ethanol, ethanol control 67.0±8.8 landings
[5] = […] in ethanol, ethanol control 67.0±8.8 landings
[6] = 0.017 µg/L air, without substance 54.1±4.9
[7] = 0.17 µg/L air, without substance 54.1±4.9
[8] = 1.7 µg/L air, without substance 54.1±4.9
[9] = 0.04% in ethanol, ethanol control 67.1±9.1 landings
[10] = 1% in ethanol, ethanol control 67.1±9.1 landings
[11] = […] in ethanol, ethanol control 67.1±9.1 landings
[12] = 0.0017 µg/L air, without substance 56.0±3.6
[13] = 0.017 µg/L air, without substance 56.0±3.6
[14] = 0.17 µg/L air, without substance 56.0±3.6
[15] = 17 µg/L air, without substance 56.0±3.6
[16] = 0.0017 µg/L air, without substance 54.1±4.9
[17] = 0.0017 µg/L air, without substance 54.7±3.2
[18] = 0.017 µg/L air, without substance 54.7±3.2
[19] = 0.17 µg/L air, without substance 54.7±3.2
[20] = 1.7 µg/L air, without substance 54.7±3.2
[21] = 1.7 µg/L air, without substance 56.0±3.6
[22] = 17 µg/L air, without substance 54.1±4.9
[23] = 17 µg/L air, without substance 54.7±3.2

Row | Structure (SMILES) | number of mosquitoes landing within 2 minutes on the warm body (Aedes aegypti [1]; [3]) | number of mosquitoes landing within 2 minutes on the warm body (Aedes aegypti [1]; [4]) | number of mosquitoes landing within 2 minutes on the warm body (Aedes aegypti [1]; [5]) | number of mosquitoes landing within 2 minutes on the warm body, air in the cage saturated with stimulus (Aedes aegypti [2]; [6]) | number of mosquitoes landing within 2 minutes on the warm body, air in the cage saturated with stimulus (Aedes aegypti [2]; [7]) | number of mosquitoes landing within 2 minutes on the warm body, air in the cage saturated with stimulus (Aedes aegypti [2]; [8]) | number of mosquitoes landing within 2 minutes on the warm body (Aedes aegypti [1]; [9]) | number of mosquitoes landing within 2 minutes on the warm body (Aedes aegypti [1]; [10]) | number of mosquitoes landing within 2 minutes on the warm body (Aedes aegypti [1]; [11]) | number of mosquitoes landing within 2 minutes on the warm body, air in the cage saturated with stimulus (Aedes aegypti [2]; [12]) | number of mosquitoes landing within 2 minutes on the warm body, air in the cage saturated with stimulus (Aedes aegypti [2]; [13]) | number of mosquitoes landing within 2 minutes on the warm body, air in the cage saturated with stimulus (Aedes aegypti [2]; [14]) | number of mosquitoes landing within 2 minutes on the warm body, air in the cage saturated with stimulus (Aedes aegypti [2]; [15]) | number of mosquitoes landing within 2 minutes on the warm body, air in the cage saturated with stimulus (Aedes aegypti [2]; [16]) | number of mosquitoes landing within 2 minutes on the warm body, air in the cage saturated with stimulus (Aedes aegypti [2]; [21]) | number of mosquitoes landing within 2 minutes on the warm body, air in the cage saturated with stimulus (Aedes aegypti [2]; [22]) | other results
1 | CCC=CCC1C(=O)CCC1CC(=O)OC (centres unmarked) [methyl 2-(3-oxo-2-pent-2-enylcyclopentyl)acetate] | 2.0 | 1.0 | 54.0 | 10.0 | 4.0 | 15.0 | – | – | – | – | – | – | – | – | – | – | –
2 | CCCCCCC1CCCC(=O)O1 (centres unmarked) [6-hexyloxan-2-one] | – | – | – | – | – | – | 13.0 | 5.0 | 74.0 | 31.0 | 28.0 | 4.0 | 5.0 | – | – | – | landings in 2 minutes (Aedes aegypti [2]; dose of 0.17 µg/L of air): less than five
3 | C#CCC1=C(C)C(OC(=O)C2C(C=C(C)C)C2(C)C)CC1=O (centres unmarked) [prallethrin, (2-methyl-4-oxo-3-prop-2-ynylcyclopent-2-en-1-yl) 2,2-dimethyl-3-(2-methylprop-1-enyl)cyclopropane-1-carboxylate, reference compound] | – | – | – | 66.0 | 15.5 | 3.0 | – | – | – | 77.0 | 66.0 | 15.5 | 1.0 | 77.0 | 3.0 | 1.0 | number of mosquitoes landing within 2 minutes on the warm body, air in the cage saturated with stimulus (Aedes aegypti [2]; [17]): 77.0; number of mosquitoes landing within 2 minutes on the warm body, air in the cage saturated with stimulus (Aedes aegypti [2]; [18]): 66.0; number of mosquitoes landing within 2 minutes on the warm body, air in the cage saturated with stimulus (Aedes aegypti [2]; [19]): 15.5; number of mosquitoes landing within 2 minutes on the warm body, air in the cage saturated with stimulus (Aedes aegypti [2]; [20]): 3.0; number of mosquitoes landing within 2 minutes on the warm body, air in the cage saturated with stimulus (Aedes aegypti [2]; [23]): 1.0
4 | CCN(CC)C(=O)c1cccc(C)c1 [N,N-diethyl-3-methylbenzamide, reference compound] | 5.1 | 2.6 | 44.9 | 28.0 | 24.0 | 1.5 | 5.1 | 2.6 | 44.9 | 35.0 | 28.0 | 24.0 | 3.0 | 35.0 | 1.5 | 3.0 | number of mosquitoes landing within 2 minutes on the warm body (Aedes aegypti [1]; 0.04% in ethanol, ethanol control 59.3±6.9 landings): 5.1; number of mosquitoes landing within 2 minutes on the warm body (Aedes aegypti [1]; 1% in ethanol, ethanol control 59.3±6.9 landings): 2.6; number of mosquitoes landing within 2 minutes on the warm body (Aedes aegypti [1]; […] in ethanol, ethanol control 59.3±6.9 landings): 44.9; number of mosquitoes landing within 2 minutes on the warm body, air in the cage saturated with stimulus (Aedes aegypti [2]; [17]): 35.0; number of mosquitoes landing within 2 minutes on the warm body, air in the cage saturated with stimulus (Aedes aegypti [2]; [18]): 28.0; number of mosquitoes landing within 2 minutes on the warm body, air in the cage saturated with stimulus (Aedes aegypti [2]; [19]): 24.0; number of mosquitoes landing within 2 minutes on the warm body, air in the cage saturated with stimulus (Aedes aegypti [2]; [20]): 1.5; number of mosquitoes landing within 2 minutes on the warm body, air in the cage saturated with stimulus (Aedes aegypti [2]; [23]): 3.0
5 | OCCc1ccccc1 [2-phenylethanol] | 46.0 | 0.0 | 72.0 | 30.0 | 25.0 | 51.0 | – | – | – | – | – | – | – | 12.0 | – | 30.0 | landing decrease (Aedes aegypti [2]; highest dose tested): 41%
6 | CC(=O)OC1CC(C)CCC1C(C)C (centres unmarked) [5-methyl-2-propan-2-ylcyclohexyl] acetate] | – | – | – | – | – | – | 16.0 | 10.0 | 22.0 | 31.5 | 24.0 | 17.5 | 25.0 | – | 9.0 | – | –
7 | CC1=CC[C@@H]2[C@H](C1)C2(C)C [(1S,6R)-3,7,7-trimethylbicyclo[4.1.0]hept-3-ene] | 55.0 | 8.0 | 59.0 | – | – | – | – | – | – | – | – | – | – | – | – | – | –
8 | CC(C)C(=O)OCCc1ccccc1 [2-phenylethyl 2-methylpropanoate] | 55.0 | 2.0 | 90.0 | – | – | – | – | – | – | – | – | – | – | – | – | – | –
9 | COC(C)(C)[C@H]1CC=C(C)CC1 [(4R)-4-(2-methoxypropan-2-yl)-1-methylcyclohexene] | 18.0 | 3.0 | 52.0 | – | – | – | – | – | – | – | – | – | – | – | – | – | landings per minute (Aedes aegypti [1]; concentration of 0.04%): ~ 10 landings per minute
